The subject of one data set is activated platelets. Description: Platelet-thrombo-erythrocyte co-aggregation assay (microtiter). Type of data set: cell-based. How it is done:
To assess the ability of thrombo-erythrocytes to enter into developing platelet aggregates, a microtiter assay was developed. Platelet-rich plasma (PRP) was prepared from blood anticoagulated with 0.01 volume 40% sodium citrate and adjusted to a platelet count of 3.5×10^8 /ml with platelet-poor plasma. Aliquots (50 or 100 μl) of the PRP were added to microtiter wells and then 5 or 10 μl of ADP (100 μM stock solution) was added to selected wells, followed by the addition of 5 or 10 μl of thrombo-erythrocytes (10% hematocrit in buffer A). The microtiter plate was then rotated at 270 rpm at 22° C. for variable periods of time between 0.5 and 20 min and the extent of platelet-thrombo-erythrocytecoaggregation was assessed visually on a scale from 0-4+ with the aid of a magnifying mirror. To assess the specificity of the reaction, in some experiments the PRP was preincubated with 10 mM EDTA, 300 μg/ml of the peptide RGDF, or 20 μg/ml of an antibody directed against both the GPIIb/IIIa receptor and the αv β3 vitronectin receptor that blocks fibrinogen binding to activated platelets (7E3) (Coller, 1985, J. Clin. Invest. 76:101-108; Coller et al., 1991, Blood 77:75-83). Blood smears were made from the samples in some experiments and stained with a standard Wright stain (Hemastain, Geometric Data, Wayne, Pa.).

Data set [1] has as its system platelets. Briefly: Agglutination assay with peptide-coated beads. Type of data set: cell-based. The procedure:
Biol. 109:863) was a gift of Dr. Kenneth Yamada, National Institutes of Health, Bethesda, Md. The platelets were incubated with the antibody concentrations indicated for 30-60 min before the addition of the beads. In the case of PAC-1, which binds only to activated platelets (Shattil et al. 1985, J. Biol. Chem. 260:1107), the platelets were activated with ADP (6.7 μM final concentration) without stirring for 5 min before adding the antibody.
To 70 μl of PRP or GFP at a count of 3×10^11 platelets/l in a 96 well round bottom polystyrene microtiter plate, 5 μl of a well mixed bead suspension (0.22 mg beads) was added and the plate was rotated at 260 rpm (Orbit shaker, Lab Line Instruments, Melrose Park, Ill.) for various times between 0 and 30 min (0.5, 1, 2, 4, 6, 8, 10, 12, 15, 20, 25, 30 min). […] Platelet counts in the supernatant plasma or buffer were measured by removing 5 μl from the supernatant after allowing the bead agglutinates to settle for 3 min. […] In some experiments, platelets were activated with 6.7 μM ADP 30 sec prior to the addition of the beads; in other experiments the platelets were preincubated with 0.14 μM PGE1 (Sigma, St. Louis) for 30 min.

Data set [2] can be described thus: Solubility of (G)n-RGDF peptides in buffers.
For data set [3] the following is noted: for solubility in 0.1% trifluoroacetic acid: pH 2.5; for solubility in the acetate buffer: pH 6.5.
The subject of data set [4] is platelets. Briefly: Release of 14C-serotonin from platelets. Format: cell-based. As to conditions: acetylsalicylic acid 50 μM; PGE1 0.14 μM; 8 min. The procedure: Citrated PRP (3×10^11 /l) was incubated with ^14 C-5-serotonin (10 μCi/ml stock solution, 20-25 nCi/ml final concentration, New England Nuclear, Boston, Mass.) for 30 min at 22° C. with gentle stirring (~100 rpm) using a teflon coated stir bar. In order to maintain the PRP pH constant at ~7.60, the PRP was overlayed with 5% CO2, 95% air just before the incubation began. Serotonin uptake was terminated by adding 5 μM imipramine (Sigma) and stirring was continued for another 5 min. Total uptake under these conditions was 70-80% of the added serotonin. The agglutination assay was performed in quadruplicate in the same way as described above except that after 8 min of shaking, 70 μl of cold 2% paraformaldehyde in PBS, pH 7.4 was added to the wells and the microtiter plate was centrifuged at 1000×g for 5 min at 22° C. The top 50 μl of the supernatant (total volume in each well was 145 μl) was added to scintillation fluid and counted in a scintillation spectrometer. In some experiments the PRP was preincubated with acetylsalicylic acid (50 μM) or PGE1 (0.14 μM) during the serotonin uptake.

The test system of a further data set is erythrocytes. Briefly: Assessment of hemolysis (leucomalachite green). To be noted: mean SD; n=6. The procedure: Hemolysis of erythrocytes during thrombo-erythrocyte preparation was assayed by the reaction of any free hemoglobin with leucomalachite green (Kodak; 0.1% p,p'-benzylidenebis-(N,N-dimethylaniline) in 3.3 M acetic acid). The resulting compound was detected by absorbance at 617 nm, a wavelength that is not interfered with by the mal-sac-HNSA dianion. Standards were prepared by lysing known amounts of erythrocytes in deionized water. The assay consisted of 10 μl of sample (the supernatant of the reaction mixture after centrifuging to remove intact erythrocytes), 1 ml of leucomalachite green, and 1 ml of 0.1% […]. After 10 min the absorbance of each sample was read at 617 nm.

Data set [5] relates to platelets adherent to collagen. Briefly: Binding of thrombo-erythrocytes to platelets adherent to collagen. To be noted: 1 hour, 22° C., 2 mM MgCl2. Format: cell-based. How it is done: The first stage of the assay, involving the adhesion of platelets to purified type 1 rat skin collagen, was performed as described previously, but without radiolabeling the platelets (Coller et al., 1989, Blood 74:182-192). In brief, a sample of gel-filtered platelets (100 μl; 5.5×10^8 /ml) in the presence of 2 mM MgCl2 was added to microtiter plate wells precoated with collagen and the platelets were allowed to adhere for 1 hour at 22° C. The wells were then emptied and washed×3 with buffer (0.15M NaCl, 0.01M Tris/HCl, 0.5% bovine serum albumin, 5 mM glucose, pH 7.4). Control erythrocytes or thrombo-erythrocytes (50 μl; 10% hematocrit) were then added to the wells in the same buffer, which was now supplemented with 2 mM MgCl2. After 60 min, the wells were emptied and washed×3 as above. The wells were then visually inspected at 400× magnification with the aid of a microscope with Nomarski optics. The effect of 20 μg/ml of an antibody to GPIIb/IIIa that blocks fibrinogen binding and platelet aggregation (10E5) (Coller et al., 1983, J. Clin. Invest. 72:325-338) and 400 μg/ml of the peptide RGDF on thrombo-erythrocyte adhesion to platelets was tested by adding these agents to the thrombo-erythrocytes immediately before the thrombo-erythrocytes were added to the microtiter wells.

A further data set relates to gel-filtered platelets. Description: Co-aggregation of thrombo-erythrocytes with gel-filtered platelets in the aggregometer. Format: cell-based. The procedure:
To obtain more quantitative data on the co-aggregation of thrombo-erythrocytes with platelets, the assay was adapted to the aggregometer. PRP was prepared from whole blood anticoagulated with ACD-A (8.5:1.5) and gel-filtered over a column of Sepharose 2B (Pharmacia) using a modified Tyrodes buffer (140 mM NaCl, 3 mM KCl, 12 mM NaHCO3, 0.4 mM NaH2 PO4, 10 mM HEPES, 2 mM MgCl2, 0.2% bovine serum albumin, 5 mM glucose, pH 7.4). Samples consisted of 450 μl of gel-filtered platelets+20 μl of thrombo-erythrocytes (10% hematocrit) or control erythrocytes (i.e., erythrocytes incubated with peptide but no crosslinker). Maximal transmission was set with 450 μl of buffer+20 μl of control erythrocytes. Platelets were activated with ADP (4.3 μM final concentration) or epinephrine (10 μM).

Entries after “also recorded” stand apart in the source; their conditions may differ. Where two headings read alike, the source gives them in different places. Where a SMILES comes first, the peptide text is derived from it. Some results are limits rather than exact numbers.

This note sets out measurements from patent US5328840A, “Method for preparing targeted carrier erythrocytes” (The Research Foundation of the State University of New York, priority 1991, dated 1994).

Consider `O=C(O)CN(CCN(CC(=O)O)CC(=O)O)CC(=O)O` [EDTA, reference compound], for which the “effect on platelet-thrombo-erythrocyte co-aggregation” value in the data set with activated platelets (ADP-activated PRP preincubated with 10 mM EDTA, 300 μg/ml RGDF or antibody 7E3) was “inhibited”. The “bead agglutination in the presence of the agent” value in the data set on platelets [1] is listed as “no agglutination at all”.
For `N=C(N)NCCC[C@H](NC(=O)CNC(=O)CNC(=O)CNC(=O)CNC(=O)CNC(=O)CNC(=O)CNC(=O)CNC(=O)CNC(=O)CNC(=O)CN)C(=O)NCC(=O)N[C@@H](CC(=O)O)C(=O)N[C@@H](Cc1ccccc1)C(N)=O` [G11 -RGDF], the “solubility in the acetate buffer” value in data set [2] (0.05M Na acetate buffer, pH 6.5) is on record as “only partially soluble”. Further, in data set [2] (pH 2.5, 22° C. or 37° C.), the “solubility in 0.1% trifluoroacetic acid” value was “fully soluble”.
With `N=C(N)NCCC[C@H](NC(=O)CNC(=O)CNC(=O)CNC(=O)CNC(=O)CNC(=O)CNC(=O)CNC(=O)CNC(=O)CNC(=O)CNC(=O)CNC(=O)CNC(=O)CN)C(=O)NCC(=O)N[C@@H](CC(=O)O)C(=O)N[C@@H](Cc1ccccc1)C(N)=O` [G13 -RGDF], in data set [3], the “solubility in 0.1% trifluoroacetic acid” value was “fully soluble” and the “solubility in the acetate buffer” value is recorded as “only partially soluble”.
For `N=C(N)NCCC[C@H](NC(=O)CNC(=O)CNC(=O)CNC(=O)CNC(=O)CNC(=O)CNC(=O)CNC(=O)CNC(=O)CNC(=O)CNC(=O)CNC(=O)CNC(=O)CNC(=O)CNC(=O)CN)C(=O)NCC(=O)N[C@@H](CC(=O)O)C(=O)N[C@@H](Cc1ccccc1)C(N)=O` [G15 -RGDF] (H-GGGGGGGGGGGGGGGRGDF-NH2), in data set [3], the “solubility in 0.1% trifluoroacetic acid” value is “fully soluble” and the “solubility in the acetate buffer” value is given as “only partially soluble”.
For `N=C(N)NCCC[C@H](NC(=O)CNC(=O)CNC(=O)CNC(=O)CNC(=O)CNC(=O)CNC(=O)CNC(=O)CNC(=O)CNC(=O)CNC(=O)CNC(=O)CNC(=O)CNC(=O)CNC(=O)CNC(=O)CNC(=O)CN)C(=O)NCC(=O)N[C@@H](CC(=O)O)C(=O)N[C@@H](Cc1ccccc1)C(N)=O` [G17 -RGDF] (H-GGGGGGGGGGGGGGGGGRGDF-NH2), in that order: “fully soluble” and “only partially soluble”.
Consider `N=C(N)NCCC[C@H](NC(=O)CNC(=O)CNC(=O)CNC(=O)CNC(=O)CNC(=O)CNC(=O)CNC(=O)CNC(=O)CNC(=O)CNC(=O)CNC(=O)CNC(=O)CNC(=O)CNC(=O)CNC(=O)CNC(=O)CNC(=O)CNC(=O)CN)C(=O)NCC(=O)N[C@@H](CC(=O)O)C(=O)N[C@@H](Cc1ccccc1)C(N)=O` [G19 -RGDF] (H-GGGGGGGGGGGGGGGGGGGRGDF-NH2), for which, in data set [3], the “solubility in 0.1% trifluoroacetic acid” value is “fully soluble” and the “solubility in the acetate buffer” value was “only partially soluble”.
As for `CCCCC[C@H](O)/C=C/[C@H]1[C@H](O)CC(=O)[C@@H]1CCCCCCC(=O)O` [PGE1], in the data set on platelets [4], the “effect of preincubation of platelets on serotonin release induced by (G)n -RGDF beads” value is “abolished release”.
The same measure, in the same setting: the value for `CC(=O)Oc1ccccc1C(=O)O` [acetylsalicylic acid] was “did not change this pattern”.
For PAC-1, the “inhibition of agglutination of G1 -RGDF and G3 -RGDF beads” value with platelets [1] is on record as “effectively inhibited”. For the same compound, the “Inhibition of G9 -RGDF Bead Agglutination (%) +ADP” value in the data set with platelets [1] (antibody 60 μg/ml, 30 min) is given as 8%. The “inhibition of the interaction of platelets in PRP with G1 -RGDF, G3 -RGDF, and G5 -RGDF beads” value with platelets [1] (even with ADP activation) is on record as more than 90%.
On to “Y-HHLGGAKQAGDV (N-terminal added tyrosine) [Fibrinogen Dodecapeptide (+Tyr), fibrinogen γ-chain dodecapeptide (amino acids 400-411) with an added amino-terminal tyrosine]”, for which the entries for the “Inhibition of G9 -RGDF Bead Agglutination (%)” value with platelets [1] (peptide 1.8 × 10^-3 M), in the data set with platelets [1] (peptide 3.6 × 10^-3 M) and with platelets [1] (peptide ≤4.5 × 10^-4 M) were 13%, 67% and 0%, respectively.
For the compound “thrombo-erythrocytes: erythrocytes covalently conjugated through Mal-Sac-HNSA to the peptide acetyl-Cys-Gly-Gly-Arg-Gly-Asp-Phe-amide (Ac-CGGRGDF-NH2) (also: conjugated to erythrocytes via Mal-Sac-HNSA)”, the platelet-thrombo-erythrocyte co-aggregation result with activated platelets (PRP with ADP, 120 min crosslinking, more than 20 experiments) is recorded as “positive response”. The interaction with platelets entry in the data set with activated platelets (no agonist added) is on record as “did not interact with platelets”. Moreover, the “erythrocyte hemolysis in supernatant fluid after the thrombo-erythrocyte reaction” value with erythrocytes is on record as 0.40±0.09%. The “binding to platelets adherent to collagen” value in data set [5] was “formed a dense lawn on top of the platelet lawn; also recorded: bound extensively to the adherent platelets”. Moreover, the “interaction with platelets (aggregometer)” value is “interact with ADP-activated platelets” in the data set on gel-filtered platelets (ADP-activated gel-filtered platelets, 4.3 μM ADP) and “did not interact with unactivated platelets” with gel-filtered platelets (unactivated gel-filtered platelets, stirring, 37° C.).
